This experiment has as its system Human immunodeficiency virus 1. As to the kind of experiment: Antiviral activity against Human immunodeficiency virus 1 infected human MT4 cells assessed as protection against virus-induced cytopathic effect. The format is functional, organism-based. The note with it: Human immunodeficiency virus 1, MT4. Background: Damage to the host cells serves as the signal in cytopathic effect assays.

With `Oc1nc2ccc(Cl)cc2n1Cc1cccc2ccccc12`, the EC50 was 870 nM (read-out: EC50) and 870 nM (read-out: pEC50 (converted)).

For the compound `CC(C)c1ccc(Cn2c(O)nc3ccc(Cl)cc32)cc1`, the EC50 by setting is: (read-out: EC50) 2830 nM; (read-out: pEC50 (converted)) 2830 nM.

For `Oc1nc2cc(Cl)ccc2n1Cc1c(F)cccc1F`, the EC50 is, setting by setting: (read-out: EC50) 29600 nM; (read-out: pEC50 (converted)) 29600 nM.

For the compound `O=c1oc2ccc(Cl)cc2n1Cc1c(F)cccc1F`, the EC50 runs as follows: (read-out: EC50) 3720 nM; (read-out: pEC50 (converted)) 3720 nM.

As for `O=c1[nH]c2ccc(Cl)cc2n1Cc1c(F)cccc1F`, the EC50 (read-out: pEC50 (converted)) is 534 nM.

Values taken from ChEMBL document CHEMBL3046534, “QSAR modeling of the inhibition of reverse transcriptase enzyme with benzimidazolone analogs” (Med Chem Res, 2011).
